Data set [1] has as its system human umbilical vein endothelial cells (HUVEC). Description: HUVEC proliferation assay co-stimulated with rhVEGF. The class given is cell-based. Particulars: Homo sapiens, HUVEC, Table 6. Here is the method:
The HUVEC assay measures the potency of test substances to inhibit in vitro proliferation of human umbilical vein endothelial cells (HUVEC) when co-stimulated with recombinant human vascular endothelial growth factor (rhVEGF).
HUVEC are grown under defined conditions (EGM-2 medium, 37° C., 5% CO2 and 95% humidity). They are seeded into 48-well plates using EBM medium with only 1% serum and incubated for 24 h. This is to ensure that cells are not stimulated before treatment with VEGF and test compound.
Test compounds are diluted in medium to concentrations between 0.05 and 50 μM and dosed together with VEGF165 at 12 ng/ml. This VEGF concentration was determined in a VEGF-dose-response curve to be just sub-optimal for maximum cell proliferation. Cells are incubated for 48 h at above conditions and viable cell density is measured using a tetrazolium compound (MTS). Viable cells reduce MTS into a soluble formazan product, which has an absorbance maximum at 490 nm. The absorbance is directly proportional to cell density.
EBM+1% serum (no VEGF) ? Minimum or Blank
EBM+1% serum (12 ng/ml) ? Maximum

Another data set concerns the target T1, rhVEGF165-biotin (Homo sapiens, UniProt P15692).
T1 sequence (P15692 27-191 isoform P15692-4): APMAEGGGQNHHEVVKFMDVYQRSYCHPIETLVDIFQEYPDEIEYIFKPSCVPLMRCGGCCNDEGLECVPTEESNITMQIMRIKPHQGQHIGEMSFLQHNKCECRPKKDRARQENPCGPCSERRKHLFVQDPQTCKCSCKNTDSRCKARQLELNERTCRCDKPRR
The data set is described as follows: VEGF-Binding ELISA (dose-response). Particulars: Table 6. Here is the method:
The potency of test substances as a VEGF-neutralising moiety is measured in an ELISA format. This assay measures the solution-phase interaction between rhVEGF165-biotin and test sample. Unbound VEGF165-biotin is then immobilised on a solid-phase anti-hVEGF antibody (R&D systems MAB293). The biotin signal is detected with streptavidin-alkaline phosphatase, which gives a colorimetric signal when incubated with p-nitrophenyl phosphate. Plates are read in a spectrophotometer at 405 nm.
Any test compound that binds to VEGF165-biotin and prevents it from binding to the antibody will lower the color signal and be recognized as a “hit”. Hits were defined as compounds that show>60% inhibition.
VEGF165-biotin+assay buffer ? 0% inhibition
Soluble VEGF receptor (sflt @ 4 nM) ? 70% inhibition
The primary screening of all library compounds was done at a compound concentration of 50 μM, followed by measuring dose-response effects of “hits” between 0.05 and 500 μM for the calculation of IC50 values.
The compounds were dissolved in DMSO and it was shown that the solvent has no effect on the assay at this concentration.
A general note: ELISA stands for enzyme-linked immunosorbent assay.

Data set [2] deals with T2, EGF binding to human A431 cells (Homo sapiens, UniProt P00533).
T2 construct: endogenous in cells; host or cells: A431
T2 sequence (P00533 25-1210): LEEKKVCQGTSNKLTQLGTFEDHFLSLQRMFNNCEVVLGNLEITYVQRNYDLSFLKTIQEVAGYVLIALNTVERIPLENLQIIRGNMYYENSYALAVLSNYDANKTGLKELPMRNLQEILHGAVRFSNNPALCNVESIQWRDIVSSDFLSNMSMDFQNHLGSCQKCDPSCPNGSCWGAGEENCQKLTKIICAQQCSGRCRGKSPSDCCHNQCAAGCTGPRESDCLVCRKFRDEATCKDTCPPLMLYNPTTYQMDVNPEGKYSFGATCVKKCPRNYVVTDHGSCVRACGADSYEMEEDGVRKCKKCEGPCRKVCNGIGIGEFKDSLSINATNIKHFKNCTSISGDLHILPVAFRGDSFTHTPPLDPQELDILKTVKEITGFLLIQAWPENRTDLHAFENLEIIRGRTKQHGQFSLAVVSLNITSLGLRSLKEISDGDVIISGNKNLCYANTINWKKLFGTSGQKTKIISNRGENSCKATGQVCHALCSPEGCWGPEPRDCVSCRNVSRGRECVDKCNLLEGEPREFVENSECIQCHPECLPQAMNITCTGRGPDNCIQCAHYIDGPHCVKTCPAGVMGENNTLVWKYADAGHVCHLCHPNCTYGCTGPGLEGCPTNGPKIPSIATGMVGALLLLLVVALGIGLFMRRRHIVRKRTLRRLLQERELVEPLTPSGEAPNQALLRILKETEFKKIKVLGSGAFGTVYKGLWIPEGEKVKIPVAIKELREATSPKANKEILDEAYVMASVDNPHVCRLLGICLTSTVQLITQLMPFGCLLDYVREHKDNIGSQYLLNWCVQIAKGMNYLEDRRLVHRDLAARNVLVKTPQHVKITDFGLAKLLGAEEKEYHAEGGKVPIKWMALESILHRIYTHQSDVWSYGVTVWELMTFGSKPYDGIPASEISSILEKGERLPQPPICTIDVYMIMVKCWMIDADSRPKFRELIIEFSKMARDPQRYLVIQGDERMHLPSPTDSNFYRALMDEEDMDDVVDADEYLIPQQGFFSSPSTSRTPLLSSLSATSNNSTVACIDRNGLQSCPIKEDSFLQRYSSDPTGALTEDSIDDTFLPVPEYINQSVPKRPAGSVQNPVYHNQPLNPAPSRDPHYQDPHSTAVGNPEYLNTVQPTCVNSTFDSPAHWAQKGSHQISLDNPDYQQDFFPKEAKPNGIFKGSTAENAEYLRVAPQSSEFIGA
Description: Epidermal Growth Factor (EGF) radioligand binding assay. As for the experimental part: (§1) Compounds 1633-00382 and 1633-02177 were tested for selectivity by determining their effect on the following assays: • Basic Fibroblast Growth Factor (FGF)-Induced cell proliferation (Gospodarowicz D, Brown K D, Birdwell C R & Zetter B R (1978) J. Cell. Biol. 77: 774-788); • Epidermal Growth Factor (EGF) radioligand binding assay (Dittadi R, Gion M, Brazzale A., Bruscagnin G. (1990) Clin. Chem. 36: 849-854; Massague J (1983) J. Biol. Chem. 258:13614-13620); and • Platelet-Derived Growth Factor (PDGF) radioligand binding assay (Williams L T, Tremble P M, Lavin M F & Sunday M E (1984) J. Biol. Chem. 259 5287-5294

For data set [3], the system named is PDGF binding to mouse 3T3 cells. The data set is described as follows: Platelet-Derived Growth Factor (PDGF) radioligand binding assay. Here is the method: as §1
In the next data set the test system is basic FGF. Description: Basic Fibroblast Growth Factor (FGF)-induced cell proliferation. The data set is classed as cell-based. As for the experimental part: as §1
Setting [4] is: ***re-tested in full-concentration response assays.

Take `NC(=O)c1ccc(Cl)c(NC(=O)c2csc(C3CCN(C(=O)CSc4ncccn4)CC3)n2)c1` [Compound 1633-00382]: the IC50 in data set [1] (setting [4]) came to 12 µM; in data set [1] (**tested after re-synthesised), 20 µM; in data set [1] (*re-test 3 months later), 16 µM; in data set [1] (first test (unmarked value)) it was 0.938 µM; on rhVEGF165-biotin (setting [4]), 1 µM; on rhVEGF165-biotin (**tested after re-synthesised), 4 µM. Further, the results for the IC50 on rhVEGF165-biotin (*re-test 3 months later) and on rhVEGF165-biotin (first test (unmarked value)) were 3.49 µM and 0.655 µM, respectively. Also, the “inhibition of EGF binding” value in data set [2] is listed as “did not inhibit”. In data set [3], the “inhibition of PDGF binding” value is on record as “did not inhibit”.
Take `CN(C)c1cccc(C(=O)N2CCC(c3nc(C(=O)Nc4cc(CC(N)=O)ccc4Cl)cs3)CC2)c1` [Compound 1633-02177]: the IC50 is 0.478 µM in data set [1] (**tested after re-synthesised); 0.712 µM in data set [1] (first test (unmarked value)); 18 µM on rhVEGF165-biotin (**tested after re-synthesised); 12 µM at rhVEGF165-biotin (first test (unmarked value)); 0.406 µM in the data set on basic FGF (Fibroblast, significant anti-proliferative activity, estimated value, read-out: anti-proliferative activity against basic FGF, estimated value). In addition, the “inhibition of EGF binding” value in data set [2] was “did not inhibit”. For the same compound, in data set [3], the “inhibition of PDGF binding” value is recorded as “did not inhibit”. Moreover, the cytotoxicity result with basic FGF (at 10 μM) was “moderate but not significant cytotoxicity”.
